pIC50: −log10 of the molar value. Where two headings read alike, the source gives them in different places.
Key:
human V2 receptor = biological target: T1, human V2 receptor (Homo sapiens, UniProt P30518); assay: Cellular in vitro assay for determining vasopressin receptor activity, V2 receptor cell line (CHO, CRE-luciferase); assay type: cell-based; conditions: CHO cell line transfected with human V2 receptor, [Arg8]-vasopressin at EC50 concentration, read-out: IC50 hV2
T1 construct: expressed in transfected cells; host or cells: CHO K1 (ATCC) expressing firefly luciferase under a CRE-responsive promoter
T1 sequence (P30518 whole entry): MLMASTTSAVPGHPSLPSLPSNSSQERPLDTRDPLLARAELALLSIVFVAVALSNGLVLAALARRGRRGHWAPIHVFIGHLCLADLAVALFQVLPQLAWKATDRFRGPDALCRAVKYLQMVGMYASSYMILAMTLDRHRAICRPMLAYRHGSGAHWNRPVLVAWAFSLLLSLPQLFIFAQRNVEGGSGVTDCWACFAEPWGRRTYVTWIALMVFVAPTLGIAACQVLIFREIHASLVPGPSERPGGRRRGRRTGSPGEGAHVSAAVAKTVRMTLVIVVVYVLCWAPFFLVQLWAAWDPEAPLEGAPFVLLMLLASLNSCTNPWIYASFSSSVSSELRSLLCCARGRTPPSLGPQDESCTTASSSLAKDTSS

human V1a receptor = biological target: T2, human V1a receptor (Homo sapiens, UniProt P37288); assay: Cellular in vitro assay for determining vasopressin receptor activity, V1a receptor cell line (CHO, aequorin luminescence); assay type: cell-based; conditions: for pIC50: CHO cell line transfected with human V1a receptor, [Arg]-vasopressin at EC50 concentration, read-out: IC50 hV1a; for ratio IC50 hV2/hV1a: selectivity ratio IC50 hV2 / IC50 hV1a
T2 construct: expressed in transfected cells; host or cells: CHO K1 (ATCC), also stably transfected with a modified aequorin
T2 sequence (P37288 whole entry): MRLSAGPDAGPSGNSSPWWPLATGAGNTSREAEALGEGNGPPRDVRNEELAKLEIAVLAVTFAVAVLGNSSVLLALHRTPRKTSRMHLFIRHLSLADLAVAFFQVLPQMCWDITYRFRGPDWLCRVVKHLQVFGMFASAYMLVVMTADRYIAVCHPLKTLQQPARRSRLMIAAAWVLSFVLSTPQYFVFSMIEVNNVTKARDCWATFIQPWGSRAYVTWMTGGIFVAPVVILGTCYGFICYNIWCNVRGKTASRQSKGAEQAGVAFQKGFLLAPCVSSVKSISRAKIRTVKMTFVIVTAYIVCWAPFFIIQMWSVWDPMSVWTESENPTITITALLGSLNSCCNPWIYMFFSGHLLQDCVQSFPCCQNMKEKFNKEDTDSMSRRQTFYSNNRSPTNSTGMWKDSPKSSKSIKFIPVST
Procedure, shortened: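 IC50 from inhibition of [Arg]-vasopressin (EC50 concentration)-evoked aequorin luminescence in CHO K1 cells, with 10-min compound pretreatment.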

pIC50 (human V2 receptor; 3 hours)	pIC50 (human V1a receptor)	ratio IC50 hV2/hV1a (human V1a receptor)	pIC50 (human V2 receptor)	SMILES
6.20	8.76	362.9	–	CC1CCCN1C(=O)c1ccccc1-n1cnc(Cn2nc(-c3ccc(Cl)cc3)n(C[C@H](O)C(F)(F)F)c2=O)n1 (mixture of isomers) [Example 355, 5-(4-Chlorophenyl)-2-{[1-(2-{[2-methylpyrrolidin-1-yl]carbonyl}phenyl)-1H-1,2,4-triazol-3-yl]methyl}-4-[(2S)-3,3,3-trifluoro-2-hydroxypropyl]-2,4-dihydro-3H-1,2,4-triazol-3-one]
–	7.39	31.5	5.89	O=C(NCC(F)(F)F)c1ncccc1-n1cnc(Cn2nc(-c3ccc(Cl)cc3)n(C[C@H](O)C(F)(F)F)c2=O)n1 [Example 428, 3-[3-({3-(4-Chlorophenyl)-5-oxo-4-[(2S)-3,3,3-trifluoro-2-hydroxypropyl]-4,5-dihydro-1H-1,2,4-triazol-1-yl}methyl)-1H-1,2,4-triazol-1-yl]-N-(2,2,2-trifluoroethyl)pyridine-2-carboxamide]
–	7.78	66.7	5.96	O=C(NC1CC1)c1ncccc1-n1cnc(Cn2nc(-c3ccc(Cl)cc3)n(C[C@H](O)C(F)(F)F)c2=O)n1 [Example 431, 3-[3-({3-(4-Chlorophenyl)-5-oxo-4-[(2S)-3,3,3-trifluoro-2-hydroxypropyl]-4,5-dihydro-1H-1,2,4-triazol-1-yl}methyl)-1H-1,2,4-triazol-1-yl]-N-cyclopropylpyridine-2-carboxamide]
5.96	7.63	46.2	–	CC1CCCC(C)N1C(=O)c1ccccc1-n1cnc(Cn2nc(-c3ccc(Cl)cc3)n(C[C@H](O)C(F)(F)F)c2=O)n1 (mixture of isomers) [Example 337, 5-(4-Chlorophenyl)-2-[(1-{2-[(2,6-dimethylpiperidin-1-yl)carbonyl]phenyl}-1H-1,2,4-triazol-3-yl)methyl]-4-[(2S)-3,3,3-trifluoro-2-hydroxypropyl]-2,4-dihydro-3H-1,2,4-triazol-3-one]
–	7.07	103.5	5.05	CC1(C)CN(C(=O)c2ncccc2-n2cnc(Cn3nc(-c4ccc(Cl)cc4)n(C[C@H](O)C(F)(F)F)c3=O)n2)CCO1 [Example 438, 5-(4-Chlorophenyl)-2-[(1-{2-[(2,2-dimethylmorpholin-4-yl)carbonyl]pyridin-3-yl}-1H-1,2,4-triazol-3-yl)methyl]-4-[(2S)-3,3,3-trifluoro-2-hydroxypropyl]-2,4-dihydro-3H-1,2,4-triazol-3-one]
7.89	8.44	3.6	–	Cc1cnc(NC(=O)c2ccccc2-n2cnc(Cn3nc(-c4ccc(Cl)cc4)n(C[C@H](O)C(F)(F)F)c3=O)n2)s1 [Example 256, 2-[3-({3-(4-Chlorophenyl)-5-oxo-4-[(2S)-3,3,3-trifluoro-2-hydroxypropyl]-4,5-dihydro-1H-1,2,4-triazol-1-yl}methyl)-1H-1,2,4-triazol-1-yl]-N-(5-methyl-1,3-thiazol-2-yl)benzamide]
5.21	7.78	369.7	–	O=C(NC1CC1)c1cccc(Cl)c1-n1cnc(Cn2nc(-c3ccc(Cl)cc3)n(C[C@@H](O)C(F)(F)F)c2=O)n1 [Example 393, 3-Chloro-2-[3-({3-(4-chlorophenyl)-5-oxo-4-[(2R)-3,3,3-trifluoro-2-hydroxypropyl]-4,5-dihydro-1H-1,2,4-triazol-1-yl}methyl)-1H-1,2,4-triazol-1-yl]-N-cyclopropylbenzamide]
6.82	8.22	24.8	–	O=C(Nc1ccncn1)c1ccccc1-n1cnc(Cn2nc(-c3ccc(Cl)cc3)n(C[C@H](O)C(F)(F)F)c2=O)n1 [Example 257, 2-[3-({3-(4-Chlorophenyl)-5-oxo-4-[(2S)-3,3,3-trifluoro-2-hydroxypropyl]-4,5-dihydro-1H-1,2,4-triazol-1-yl}methyl)-1H-1,2,4-triazol-1-yl]-N-(pyrimidin-4-yl)benzamide]
–	5.35	7.1	4.49	O=C1CN(c2nc(Cn3nc(-c4ccc(Cl)cc4)n(C[C@H](O)C(F)(F)F)c3=O)nn2-c2cccnc2C(=O)N[C@H]2C[C@@H]2F)CCN1 (racemic) [Example 507, 3-[3-({3-(4-Chlorophenyl)-5-oxo-4-[(2S)-3,3,3-trifluoro-2-hydroxypropyl]-4,5-dihydro-1H-1,2,4-triazol-1-yl}methyl)-5-(3-oxopiperazin-1-yl)-1H-1,2,4-triazol-1-yl]-N-[2-fluorocyclopropyl]pyridine-2-carboxamide]

Second part, the compound before the results:

SMILES	pIC50 (human V2 receptor; 3 hours)	pIC50 (human V1a receptor)	ratio IC50 hV2/hV1a (human V1a receptor)	pIC50 (human V2 receptor)
O=c1n(Cc2ncn(-c3cccnc3N3CCOCC3)n2)nc(-c2ccc(Cl)cc2)n1C[C@H](O)C(F)(F)F [Example 64, 5-(4-Chlorophenyl)-2-({1-[2-(morpholin-4-yl)pyridin-3-yl]-1H-1,2,4-triazol-3-yl}methyl)-4-[(2S)-3,3,3-trifluoro-2-hydroxypropyl]-2,4-dihydro-3H-1,2,4-triazol-3-one]	6.27	7.80	33.4	–
NC1(CNc2ccncc2-n2cnc(Cn3nc(-c4ccc(Cl)cc4)n(C[C@H](O)C(F)(F)F)c3=O)n2)CC1 [Example 3, 2-{[1-(4-{[(1-Aminocyclopropyl)methyl]amino}pyridin-3-yl)-1H-1,2,4-triazol-3-yl]methyl}-5-(4-chlorophenyl)-4-[(2S)-3,3,3-trifluoro-2-hydroxypropyl]-2,4-dihydro-3H-1,2,4-triazol-3-one]	6.14	5.91	0.6	–
O=C(NCCF)c1ccccc1-n1cnc(Cn2nc(-c3ccc(Cl)cc3)n(C[C@H](O)C(F)(F)F)c2=O)n1 [Example 241, 2-[3-({3-(4-Chlorophenyl)-5-oxo-4-[(2S)-3,3,3-trifluoro-2-hydroxypropyl]-4,5-dihydro-1H-1,2,4-triazol-1-yl}methyl)-1H-1,2,4-triazol-1-yl]-N-(2-fluoroethyl)benzamide]	7.13	8.66	33.4	–
O=C(NC1CCOC1)c1ccccc1-n1cnc(Cn2nc(-c3ccc(Cl)cc3)n(C[C@H](O)C(F)(F)F)c2=O)n1 (mixture of isomers) [Example 208, 2-[3-({3-(4-Chlorophenyl)-5-oxo-4-[(2S)-3,3,3-trifluoro-2-hydroxypropyl]-4,5-dihydro-1H-1,2,4-triazol-1-yl}methyl)-1H-1,2,4-triazol-1-yl]-N-[tetrahydrofuran-3-yl]benzamide]	7.02	8.62	39.8	–
O=c1n(Cc2ncn(-c3cccnc3NCC(F)(F)F)n2)nc(-c2ccc(Cl)cc2)n1C[C@H](O)C(F)(F)F [Example 71, 5-(4-Chlorophenyl)-2-[(1-{2-[(2,2,2-trifluoroethyl)amino]pyridin-3-yl}-1H-1,2,4-triazol-3-yl)methyl]-4-[(2S)-3,3,3-trifluoro-2-hydroxypropyl]-2,4-dihydro-3H-1,2,4-triazol-3-one]	6.62	6.82	1.6	–
NC(=O)[C@H]1CCN(C(=O)c2ccccc2-n2cnc(Cn3nc(-c4ccc(Cl)cc4)n(C[C@H](O)C(F)(F)F)c3=O)n2)C1 [Example 200, (3S)-1-{2-[3-({3-(4-Chlorophenyl)-5-oxo-4-[(2S)-3,3,3-trifluoro-2-hydroxypropyl]-4,5-dihydro-1H-1,2,4-triazol-1-yl}methyl)-1H-1,2,4-triazol-1-yl]benzoyl}pyrrolidine-3-carboxamide]	5.76	7.95	153.3	–
CC(C)(C)OC(=O)CCNc1ccncc1-n1cnc(Cn2nc(-c3ccc(Cl)cc3)n(C[C@H](O)C(F)(F)F)c2=O)n1 [Example 19, Tert-butyl N-{3-[3-({3-(4-chlorophenyl)-5-oxo-4-[(2S)-3,3,3-trifluoro-2-hydroxypropyl]-4,5-dihydro-1H-1,2,4-triazol-1-yl}methyl)-1H-1,2,4-triazol-1-yl]pyridin-4-yl}-beta-alaninate]	5.65	6.37	5.2	–
CC(=O)Nc1ncccc1-n1cnc(Cn2nc(-c3ccc(Cl)cc3)n(C[C@H](O)C(F)(F)F)c2=O)n1 [Example 73, N-{3-[3-({3-(4-Chlorophenyl)-5-oxo-4-[(2S)-3,3,3-trifluoro-2-hydroxypropyl]-4,5-dihydro-1H-1,2,4-triazol-1-yl}methyl)-1H-1,2,4-triazol-1-yl]pyridin-2-yl}acetamide]	6.15	7.28	13.4	–
O=C(CC(F)(F)F)Nc1ccncc1-n1cnc(Cn2nc(-c3ccc(Cl)cc3)n(C[C@H](O)C(F)(F)F)c2=O)n1 [Example 27, N-{3-[3-({3-(4-Chlorophenyl)-5-oxo-4-[(2S)-3,3,3-trifluoro-2-hydroxypropyl]-4,5-dihydro-1H-1,2,4-triazol-1-yl}methyl)-1H-1,2,4-triazol-1-yl]pyridin-4-yl}-3,3,3-trifluoropropanamide]	6.55	8.39	69.8	–
Cc1ccc(F)cc1NC(=O)c1ccccc1-n1cnc(Cn2nc(-c3ccc(Cl)cc3)n(C[C@H](O)C(F)(F)F)c2=O)n1 [Example 229, 2-[3-({3-(4-Chlorophenyl)-5-oxo-4-[(2S)-3,3,3-trifluoro-2-hydroxypropyl]-4,5-dihydro-1H-1,2,4-triazol-1-yl}methyl)-1H-1,2,4-triazol-1-yl]-N-(5-fluoro-2-methylphenyl)benzamide]	7.31	8.63	21.1	–
